Laboratory results as given in PMC4492579, “Potent and Selective Triazole-Based Inhibitors of the Hypoxia-Inducible Factor Prolyl-Hydroxylases with Activity in the Murine Brain” (PLoS ONE, 2015).
Read-outs that look alike come from different tables or passages of the source.

Columns and labels:
JMJD1A (KDM3A) [1] = target: T1, JMJD1A (KDM3A) (Homo sapiens, UniProt Q9Y4C1); assay: KDM AlphaScreen assay, JMJD1A
T1 sequence (Q9Y4C1 1-1321): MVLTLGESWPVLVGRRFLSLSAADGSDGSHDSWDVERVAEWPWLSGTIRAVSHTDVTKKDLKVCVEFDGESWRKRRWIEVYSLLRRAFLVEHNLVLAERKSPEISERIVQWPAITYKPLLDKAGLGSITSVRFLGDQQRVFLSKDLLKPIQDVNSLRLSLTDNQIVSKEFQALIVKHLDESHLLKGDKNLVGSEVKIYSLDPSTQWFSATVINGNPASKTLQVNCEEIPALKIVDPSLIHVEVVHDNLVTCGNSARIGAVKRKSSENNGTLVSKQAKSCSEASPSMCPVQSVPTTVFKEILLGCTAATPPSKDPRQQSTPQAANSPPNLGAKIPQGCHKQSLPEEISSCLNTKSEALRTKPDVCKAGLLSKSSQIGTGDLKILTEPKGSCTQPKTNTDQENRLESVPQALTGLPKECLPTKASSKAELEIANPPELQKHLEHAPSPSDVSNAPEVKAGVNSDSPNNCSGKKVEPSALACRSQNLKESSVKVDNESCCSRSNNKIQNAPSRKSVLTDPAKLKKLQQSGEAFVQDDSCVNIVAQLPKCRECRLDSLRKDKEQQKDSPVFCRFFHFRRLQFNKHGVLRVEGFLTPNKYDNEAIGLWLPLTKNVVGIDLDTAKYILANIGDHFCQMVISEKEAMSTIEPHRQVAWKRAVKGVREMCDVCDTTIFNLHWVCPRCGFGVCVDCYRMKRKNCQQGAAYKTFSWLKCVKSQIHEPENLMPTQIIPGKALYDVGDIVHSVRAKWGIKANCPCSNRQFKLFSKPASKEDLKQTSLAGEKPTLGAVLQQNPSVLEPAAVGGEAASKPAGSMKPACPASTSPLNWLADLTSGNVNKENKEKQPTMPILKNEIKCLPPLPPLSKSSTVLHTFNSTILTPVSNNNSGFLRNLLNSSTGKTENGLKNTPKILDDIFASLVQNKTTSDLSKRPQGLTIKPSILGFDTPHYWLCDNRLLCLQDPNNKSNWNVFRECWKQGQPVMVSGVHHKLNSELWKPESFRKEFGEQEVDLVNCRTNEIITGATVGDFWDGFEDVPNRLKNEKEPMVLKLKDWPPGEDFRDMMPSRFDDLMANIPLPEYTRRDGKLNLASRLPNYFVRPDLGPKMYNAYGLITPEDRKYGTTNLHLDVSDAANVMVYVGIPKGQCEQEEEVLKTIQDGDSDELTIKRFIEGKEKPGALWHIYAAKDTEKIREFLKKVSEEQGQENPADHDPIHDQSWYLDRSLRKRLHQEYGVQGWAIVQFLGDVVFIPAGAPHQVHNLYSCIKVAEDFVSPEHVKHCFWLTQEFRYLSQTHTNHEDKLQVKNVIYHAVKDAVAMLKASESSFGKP
Experimental: Inhibition assays for PHD2 (AlphaScreen) [9], the KDMs (AlphaScreen) [17], BBOX [18] and FTO [19] were carried out as previously described. […] IC50 values were calculated using nonlinear regression with normalized dose-response fit using GraphPad Prism 5.

FIH = FIH (Homo sapiens, UniProt Q9NWT6); assay: FIH liquid chromatography-mass spectrometry assay (RapidFire)
Experimental: After 15 minutes, the enzyme reaction was stopped by the addition of 4 ml 10% formic acid and the reaction mixture transferred to a RapidFire RF360 high throughput sampling robot. Samples were aspirated under vacuum onto a C4 Solid Phase Extraction (SPE) cartridge. […] Ion chromatogram data was extracted for the non-hydroxylated peptide substrate and the hydroxylated peptide product and peak area data for extracted ion chromatograms were integrated using RapidFire Integrator software. Percentage conversion of substrate to product was calculated in Microsoft Excel and IC50 values were calculated using Graphpad Prism 5.

JMJD2E (KDM4E) = target: T2, JMJD2E (KDM4E) (Homo sapiens, UniProt B2RXH2); parameters: method as in PMID 26682036; settings: cited from earlier work
T2 sequence (B2RXH2 1-506): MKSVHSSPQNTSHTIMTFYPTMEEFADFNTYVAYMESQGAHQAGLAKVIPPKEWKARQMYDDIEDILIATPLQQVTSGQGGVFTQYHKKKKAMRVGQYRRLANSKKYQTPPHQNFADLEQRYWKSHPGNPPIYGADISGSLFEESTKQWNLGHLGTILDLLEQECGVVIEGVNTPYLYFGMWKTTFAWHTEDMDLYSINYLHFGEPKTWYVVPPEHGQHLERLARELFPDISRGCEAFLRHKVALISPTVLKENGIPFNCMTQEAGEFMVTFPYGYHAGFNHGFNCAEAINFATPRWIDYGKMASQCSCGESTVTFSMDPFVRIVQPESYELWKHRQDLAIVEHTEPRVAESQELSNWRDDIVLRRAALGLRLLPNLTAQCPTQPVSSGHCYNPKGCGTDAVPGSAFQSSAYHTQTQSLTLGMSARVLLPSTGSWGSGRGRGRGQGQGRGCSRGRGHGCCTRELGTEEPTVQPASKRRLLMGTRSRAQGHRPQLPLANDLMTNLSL

JMJD2C (KDM4C) = target: T3, JMJD2C (KDM4C) (Homo sapiens, UniProt Q9H3R0); parameters: method as in PMID 26682036; settings: cited from earlier work
T3 sequence (Q9H3R0 1-1056): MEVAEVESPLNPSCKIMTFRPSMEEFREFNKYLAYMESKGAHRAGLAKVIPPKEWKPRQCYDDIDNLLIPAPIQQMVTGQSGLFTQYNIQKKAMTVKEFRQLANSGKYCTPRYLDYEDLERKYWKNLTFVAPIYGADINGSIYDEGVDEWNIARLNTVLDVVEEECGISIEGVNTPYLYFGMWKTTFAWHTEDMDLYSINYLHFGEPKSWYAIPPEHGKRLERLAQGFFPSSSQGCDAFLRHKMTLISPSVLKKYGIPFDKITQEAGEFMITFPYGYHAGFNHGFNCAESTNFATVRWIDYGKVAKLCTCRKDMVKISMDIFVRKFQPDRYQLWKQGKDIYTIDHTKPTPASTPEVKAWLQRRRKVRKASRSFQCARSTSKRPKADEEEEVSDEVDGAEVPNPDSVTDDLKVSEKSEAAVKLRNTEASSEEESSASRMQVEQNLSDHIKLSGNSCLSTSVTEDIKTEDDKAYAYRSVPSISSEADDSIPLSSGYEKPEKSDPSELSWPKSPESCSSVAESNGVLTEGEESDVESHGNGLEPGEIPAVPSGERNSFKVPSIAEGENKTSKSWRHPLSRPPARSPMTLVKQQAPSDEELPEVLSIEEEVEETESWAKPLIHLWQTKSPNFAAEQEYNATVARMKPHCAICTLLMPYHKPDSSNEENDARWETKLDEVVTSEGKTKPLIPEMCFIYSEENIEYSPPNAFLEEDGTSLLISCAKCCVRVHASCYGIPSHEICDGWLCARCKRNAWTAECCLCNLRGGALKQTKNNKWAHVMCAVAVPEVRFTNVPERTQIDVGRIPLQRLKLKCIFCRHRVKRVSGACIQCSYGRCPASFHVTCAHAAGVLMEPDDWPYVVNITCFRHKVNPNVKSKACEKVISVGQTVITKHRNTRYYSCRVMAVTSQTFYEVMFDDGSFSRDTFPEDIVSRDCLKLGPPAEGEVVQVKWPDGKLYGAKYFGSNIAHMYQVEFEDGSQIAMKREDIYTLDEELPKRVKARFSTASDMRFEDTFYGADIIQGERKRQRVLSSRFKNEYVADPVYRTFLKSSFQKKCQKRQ

JMJD1A (KDM3A) [2] = target: T1, JMJD1A (KDM3A); parameters: method as in PMID 26682036; settings: cited from earlier work

Sequence of FIH (Q9NWT6 whole entry): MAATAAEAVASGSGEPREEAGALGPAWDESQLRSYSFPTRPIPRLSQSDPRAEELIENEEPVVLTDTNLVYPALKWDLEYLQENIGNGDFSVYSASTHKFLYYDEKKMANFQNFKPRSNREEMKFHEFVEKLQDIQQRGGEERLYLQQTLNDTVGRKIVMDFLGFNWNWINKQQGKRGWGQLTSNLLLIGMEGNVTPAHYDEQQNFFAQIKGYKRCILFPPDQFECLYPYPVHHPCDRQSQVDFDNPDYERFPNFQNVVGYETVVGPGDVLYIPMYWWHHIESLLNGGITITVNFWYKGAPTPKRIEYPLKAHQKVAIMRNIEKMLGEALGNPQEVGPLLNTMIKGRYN

CC(C)(C)OC(=O)c1ccc(-n2[nH]cc(-n3ccnn3)c2=O)nc1 [IOX4, t-Butyl 6-(5-oxo-4-(1H-1,2,3-triazol-1-yl)-2,5-dihydro-1H-pyrazol-1-yl)nicotinate]
IC50 (JMJD1A (KDM3A) [1]): > 20 µM

O=C(O)CNC(=O)c1c(O)c2ccccc2n(Cc2ccccc2)c1=O [IOX2]
IC50 (FIH): > 100 µM | IC50 (JMJD2E (KDM4E)): > 100 µM | IC50 (JMJD2C (KDM4C)): 100 µM | IC50 (JMJD1A (KDM3A) [2]): > 100 µM
